Patent US8076487B2, “Pyridone derivative and herbicide” (Kumiai Chemical Industry Co., Ltd., priority 2006, dated 2011)

What was measured:
Type in all cases: in vivo
[1] = test system: velvetleaf (Abutilon theophrasti medicus); assay: Test Example 2: herbicidal effect by soil application to upland field; details: soil surface spray, upland field soil, 1,000 g active ingredient per hectare, 21st day after application
Outline: (§1)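 Pre-emergence soil test: seeds sown in pots of field soil, then wettable-powder formulation sprayed on soil surface at 1,000 g active ingredient per hectare in 1,000 L water per hectare. Plants grown in greenhouse; herbicidal effect scored on a standard scale at day 21.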

[2] = test system: green foxtail (Setaria viridis (L.) P. Beauv.); assay: as above; details: soil surface spray, upland field soil, 1,000 g active ingredient per hectare, 21st day after application
Outline: as §1

[3] = test system: barnyardgrass (Echinochloa crus-galli (L.) P. Beauv. var. crus-galli); assay: as above; details: soil surface spray, upland field soil, 1,000 g active ingredient per hectare, 21st day after application
Outline: as §1

[4] = test system: slender amaranth (Amaranthus viridis L.); assay: as above; details: soil surface spray, upland field soil, 1,000 g active ingredient per hectare, 21st day after application
Outline: as §1

[5] = test system: Japanese bulrush (Scirpus juncoides Roxb.); assay: Test Example 1: herbicidal effect by soil application to paddy field; details: paddy field soil application; active ingredient 1,000 g per 1 hectare; wettable powder added dropwise to water surface the day after sowing; examined on the 21st day after application
Outline: (§2)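 Plants were sown in flooded (3 cm) paddy soil and evaluated for herbicidal effect 21 days after soil application in a greenhouse.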

[6] = test system: early watergrass (Echinochloa oryzicola Vasing); assay: as above; details: paddy field soil application; active ingredient 1,000 g per 1 hectare; wettable powder added dropwise to water surface the day after sowing; examined on the 21st day after application
Outline: as §2

[7] = test system: heartshape false pickerelweed (Monochoria vaginalis (Burm.f.) C.Presl); assay: as above; details: paddy field soil application; active ingredient 1,000 g per 1 hectare; wettable powder added dropwise to water surface the day after sowing; examined on the 21st day after application
Outline: as §2

[8] = test system: velvetleaf (Abutilon theophrasti medicus); assay: Test Example 3: herbicidal effect by application to upland field (foliage treatment); details: foliage treatment, plants grown two weeks, 1,000 g active ingredient per hectare, 14th day after application
Outline: (§3)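 Upland foliage test in greenhouse pots of field soil: seedlings sprayed at two weeks post-sowing with 1,000 g/ha active ingredient (wettable powder, 1,000 L water/ha). Scored 14 d after application.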

[9] = test system: green foxtail (Setaria viridis (L.) P. Beauv.); assay: as above; details: foliage treatment, plants grown two weeks, 1,000 g active ingredient per hectare, 14th day after application
Outline: as §3

[10] = test system: barnyardgrass (Echinochloa crus-galli (L.) P. Beauv. var. crus-galli); assay: as above; details: foliage treatment, plants grown two weeks, 1,000 g active ingredient per hectare, 14th day after application
Outline: as §3

[11] = test system: slender amaranth (Amaranthus viridis L.); assay: as above; details: foliage treatment, plants grown two weeks, 1,000 g active ingredient per hectare, 14th day after application
Outline: as §3

SMILES	herbicidal effect (index), Velvetleaf [1]	herbicidal effect (index), Green Foxtail [2]	herbicidal effect (index), Barnyardgrass [3]	herbicidal effect (index), Slender Amaranth [4]	herbicidal effect, Scirpus juncoides Roxb. [5]	herbicidal effect, Echinochloa oryzicola Vasing [6]	herbicidal effect, Monochoria vaginalis (Burm. f.) C. Presl [7]	herbicidal effect (index), Velvetleaf [8]	herbicidal effect (index), Green Foxtail [9]	herbicidal effect (index), Barnyardgrass [10]	herbicidal effect (index), Slender Amaranth [11]
O=C1CCCC(O)=C1C(=O)c1ccc(C(F)(F)F)n(CSC2CCCC2)c1=O [I-59]	5 (90% or more of herbicidal effect and crop phytotoxicity)	4 (70 to less than 90% of herbicidal effect and crop phytotoxicity)	5 (90% or more of herbicidal effect and crop phytotoxicity)	5 (90% or more of herbicidal effect and crop phytotoxicity)	5 (90% or more of herbicidal effect and crop phytotoxicity)	5 (90% or more of herbicidal effect and crop phytotoxicity)	5 (90% or more of herbicidal effect and crop phytotoxicity)	5 (90% or more of herbicidal effect and crop phytotoxicity)	5 (90% or more of herbicidal effect and crop phytotoxicity)	5 (90% or more of herbicidal effect and crop phytotoxicity)	5 (90% or more of herbicidal effect and crop phytotoxicity)
O=C1CCCC(O)=C1C(=O)c1ccc(C(F)(F)F)n(CS(=O)(=O)C2CCCC2)c1=O [I-60]	5 (90% or more of herbicidal effect and crop phytotoxicity)	5 (90% or more of herbicidal effect and crop phytotoxicity)	5 (90% or more of herbicidal effect and crop phytotoxicity)	5 (90% or more of herbicidal effect and crop phytotoxicity)	5 (90% or more of herbicidal effect and crop phytotoxicity)	5 (90% or more of herbicidal effect and crop phytotoxicity)	5 (90% or more of herbicidal effect and crop phytotoxicity)	5 (90% or more of herbicidal effect and crop phytotoxicity)	5 (90% or more of herbicidal effect and crop phytotoxicity)	5 (90% or more of herbicidal effect and crop phytotoxicity)	5 (90% or more of herbicidal effect and crop phytotoxicity)
C=CCSCn1c(C(F)(F)F)ccc(C(=O)C2=C(O)CCCC2=O)c1=O [I-63]	5 (90% or more of herbicidal effect and crop phytotoxicity)	4 (70 to less than 90% of herbicidal effect and crop phytotoxicity)	5 (90% or more of herbicidal effect and crop phytotoxicity)	5 (90% or more of herbicidal effect and crop phytotoxicity)	5 (90% or more of herbicidal effect and crop phytotoxicity)	5 (90% or more of herbicidal effect and crop phytotoxicity)	5 (90% or more of herbicidal effect and crop phytotoxicity)	5 (90% or more of herbicidal effect and crop phytotoxicity)	5 (90% or more of herbicidal effect and crop phytotoxicity)	5 (90% or more of herbicidal effect and crop phytotoxicity)	5 (90% or more of herbicidal effect and crop phytotoxicity)
C[S+]([O-])CCn1c(C(F)(F)F)ccc(C(=O)C2=C(O)CCCC2=O)c1=O (stereo not shown) [I-66]	5 (90% or more of herbicidal effect and crop phytotoxicity)	5 (90% or more of herbicidal effect and crop phytotoxicity)	5 (90% or more of herbicidal effect and crop phytotoxicity)	5 (90% or more of herbicidal effect and crop phytotoxicity)	5 (90% or more of herbicidal effect and crop phytotoxicity)	5 (90% or more of herbicidal effect and crop phytotoxicity)	5 (90% or more of herbicidal effect and crop phytotoxicity)	5 (90% or more of herbicidal effect and crop phytotoxicity)	5 (90% or more of herbicidal effect and crop phytotoxicity)	5 (90% or more of herbicidal effect and crop phytotoxicity)	5 (90% or more of herbicidal effect and crop phytotoxicity)
CS(=O)(=O)CCn1c(C(F)(F)F)ccc(C(=O)C2=C(O)CCCC2=O)c1=O [I-67]	5 (90% or more of herbicidal effect and crop phytotoxicity)	5 (90% or more of herbicidal effect and crop phytotoxicity)	5 (90% or more of herbicidal effect and crop phytotoxicity)	5 (90% or more of herbicidal effect and crop phytotoxicity)	5 (90% or more of herbicidal effect and crop phytotoxicity)	5 (90% or more of herbicidal effect and crop phytotoxicity)	5 (90% or more of herbicidal effect and crop phytotoxicity)	5 (90% or more of herbicidal effect and crop phytotoxicity)	5 (90% or more of herbicidal effect and crop phytotoxicity)	5 (90% or more of herbicidal effect and crop phytotoxicity)	5 (90% or more of herbicidal effect and crop phytotoxicity)
C[S+]([O-])CCCn1c(C(F)(F)F)ccc(C(=O)C2=C(O)CCCC2=O)c1=O (stereo not shown) [I-70]	5 (90% or more of herbicidal effect and crop phytotoxicity)	5 (90% or more of herbicidal effect and crop phytotoxicity)	5 (90% or more of herbicidal effect and crop phytotoxicity)	5 (90% or more of herbicidal effect and crop phytotoxicity)	5 (90% or more of herbicidal effect and crop phytotoxicity)	5 (90% or more of herbicidal effect and crop phytotoxicity)	5 (90% or more of herbicidal effect and crop phytotoxicity)	5 (90% or more of herbicidal effect and crop phytotoxicity)	5 (90% or more of herbicidal effect and crop phytotoxicity)	5 (90% or more of herbicidal effect and crop phytotoxicity)	5 (90% or more of herbicidal effect and crop phytotoxicity)
CS(=O)(=O)CCCn1c(C(F)(F)F)ccc(C(=O)C2=C(O)CCCC2=O)c1=O [I-71]	5 (90% or more of herbicidal effect and crop phytotoxicity)	5 (90% or more of herbicidal effect and crop phytotoxicity)	5 (90% or more of herbicidal effect and crop phytotoxicity)	5 (90% or more of herbicidal effect and crop phytotoxicity)	5 (90% or more of herbicidal effect and crop phytotoxicity)	5 (90% or more of herbicidal effect and crop phytotoxicity)	5 (90% or more of herbicidal effect and crop phytotoxicity)	5 (90% or more of herbicidal effect and crop phytotoxicity)	5 (90% or more of herbicidal effect and crop phytotoxicity)	5 (90% or more of herbicidal effect and crop phytotoxicity)	5 (90% or more of herbicidal effect and crop phytotoxicity)
O=C1CCCC(O)=C1C(=O)c1ccc(C(F)(F)F)n(-c2ccccc2)c1=O [I-72, 2-[1,2-dihydro-2-oxo-1-phenyl-6-(trifluoromethyl)pyridine-3-carbonyl]-3-hydroxy-2-cyclohexen-1-one]	5 (90% or more of herbicidal effect and crop phytotoxicity)	5 (90% or more of herbicidal effect and crop phytotoxicity)	5 (90% or more of herbicidal effect and crop phytotoxicity)	5 (90% or more of herbicidal effect and crop phytotoxicity)	5 (90% or more of herbicidal effect and crop phytotoxicity)	5 (90% or more of herbicidal effect and crop phytotoxicity)	5 (90% or more of herbicidal effect and crop phytotoxicity)	5 (90% or more of herbicidal effect and crop phytotoxicity)	5 (90% or more of herbicidal effect and crop phytotoxicity)	5 (90% or more of herbicidal effect and crop phytotoxicity)	5 (90% or more of herbicidal effect and crop phytotoxicity)
